We go through 13 compounds from US11351178B2, “Selective HDAC6 inhibitors” (ITALFARMACO S.P.A., priority 2017, dated 2022).

One data set addresses T1, recombinant human HDAC6 (Homo sapiens, UniProt Q9UBN7).
T1 sequence (Q9UBN7 1-1215): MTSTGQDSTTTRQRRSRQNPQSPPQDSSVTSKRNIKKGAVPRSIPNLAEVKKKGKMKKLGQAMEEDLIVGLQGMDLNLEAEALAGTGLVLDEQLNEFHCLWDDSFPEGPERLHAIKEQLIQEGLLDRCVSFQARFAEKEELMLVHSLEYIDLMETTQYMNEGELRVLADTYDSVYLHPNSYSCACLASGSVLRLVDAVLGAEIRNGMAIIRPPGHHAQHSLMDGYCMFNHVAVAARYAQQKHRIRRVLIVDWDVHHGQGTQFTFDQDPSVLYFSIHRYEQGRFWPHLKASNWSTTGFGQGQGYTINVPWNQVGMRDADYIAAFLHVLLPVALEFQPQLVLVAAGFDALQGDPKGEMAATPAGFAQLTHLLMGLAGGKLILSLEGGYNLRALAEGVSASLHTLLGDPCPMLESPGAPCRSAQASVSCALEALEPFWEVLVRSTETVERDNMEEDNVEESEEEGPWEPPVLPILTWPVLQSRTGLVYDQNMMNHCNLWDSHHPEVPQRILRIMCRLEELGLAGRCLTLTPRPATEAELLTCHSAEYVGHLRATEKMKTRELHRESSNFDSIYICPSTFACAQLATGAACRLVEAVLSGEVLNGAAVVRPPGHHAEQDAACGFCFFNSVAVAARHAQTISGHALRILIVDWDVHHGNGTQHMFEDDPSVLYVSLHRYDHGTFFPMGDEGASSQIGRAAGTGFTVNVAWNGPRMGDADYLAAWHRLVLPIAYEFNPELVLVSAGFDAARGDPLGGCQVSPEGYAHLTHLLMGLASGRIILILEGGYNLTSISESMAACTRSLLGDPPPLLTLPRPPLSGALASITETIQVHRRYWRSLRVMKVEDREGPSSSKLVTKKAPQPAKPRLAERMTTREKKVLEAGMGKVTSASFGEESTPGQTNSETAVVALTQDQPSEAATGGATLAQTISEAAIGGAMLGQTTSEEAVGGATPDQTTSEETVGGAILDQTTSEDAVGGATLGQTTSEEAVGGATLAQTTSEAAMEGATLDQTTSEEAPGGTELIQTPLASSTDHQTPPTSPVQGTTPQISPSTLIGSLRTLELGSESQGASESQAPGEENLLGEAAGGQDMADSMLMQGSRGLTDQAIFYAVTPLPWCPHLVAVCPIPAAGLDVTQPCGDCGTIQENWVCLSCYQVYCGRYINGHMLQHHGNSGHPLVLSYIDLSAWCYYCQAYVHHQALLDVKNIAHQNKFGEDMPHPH
Kind of data set: Enzymatic screening on recombinant human HDAC6. As to conditions: Table 2; read-out: HDAC6 IC50. The format is biochemical. The method, boiled down:
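Recombinant human enzyme was incubated with compound at 30 °C for an isoform-dependent time, then substrate (FLUOR DE LYS, FLUOR DE LYS-Green or trifluoroacetyl-L-lysine) was added as a 2× solution in 25 mM Tris-HCl pH 8, 130 mM NaCl, 0.05% Tween-20, 10% glycerol. The deacetylation reaction then proceeded at 30 °C.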

Data set [1] in a line: Stability to Phase I metabolism in rat S9 liver fraction. The format is in vitro ADME. Particulars: after 90 min, 37° C. Summed up: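 Phase I stability in human and rat hepatic S9 at 37 °C, sampled up to 90 min. Samples were stopped with acidified acetonitrile on ice, then quantified by HPLC-UV or LC-MS/MS.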
A short description of data set [2]: Stability to Phase I metabolism in human S9 liver fraction. The class given is in vitro ADME. As to conditions: human, 90 min, pH 7.4. The procedure:
Test compounds were incubated in rat and human liver S9 fraction at 37° C. up to 90 minutes in order to evaluate their stability to Phase I metabolism by hepatic enzymes. […] The reaction was stopped placing samples on ice bath and adding acidified acetonitrile. After centrifugation (10 minutes at 14000 rpm) an aliquot of the supernatant was diluted water, filtered with 0.45 μm regenerated cellulose syringe filters and injected in HPLC-UV or in LC-MS/MS. The percentages of the amount remaining at the various incubation times with respect to the initial amount were calculated. The intrinsic clearance was also calculated.

The next data set in a line: Stability in rat plasma. The class given is in vitro ADME. As to conditions: after 4 hours, 37° C. Summed up: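 Compounds incubated at 37° C in rat or human plasma at 50 μM (UV/HPLC) or 1 or 2 μM (LC-MS/MS) for 0–4 h. Reaction stopped with acidified acetonitrile on ice; percent remaining versus initial amount and plasma half-life calculated.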
Data set [3] is described as follows: Stability in human plasma. The format is in vitro ADME. As to conditions: after 4 hours, 37° C. As to the method: In order to evaluate the stability to circulating enzymes, test compounds were incubated in human and rat plasma at 37° C. in a thermostated oscillating bath. Each test compound was incubated at μM (50 μM when the samples were analysed by UV/HPLC, 1 or 2 μM when the samples were analysed by LC-MS/MS) concentration for 0, 15, 30 min and 1, 2 and 4 hours. The reaction was stopped placing tubes on ice bath and adding acidified acetonitrile. After centrifugation for 10 minutes at 14000 rpm, an aliquot of the supernatant was diluted with water, filtered with 0.45 μm syringe filters and injected in HPLC-UV or in LC-MS/MS. The percentages of amount remaining at the various times of incubation with respect to initial amount were calculated. The half-life in plasma was also calculated.

By IC50 is commonly meant the point on the concentration scale where inhibition reaches its midpoint.

The structures appear in SMILES notation.

Regarding `O=C(NO)c1ccc(Sc2nnc(-c3ccccc3)o2)cc1` [comp. 188, 4-[(5-phenyl-1,3,4-oxadiazol-2-yl)sulfanyl]benzenecarbohydroxamic acid], the IC50 at recombinant human HDAC6 came to 7 nM. Further, the “residual percentage in rat S9 fraction” value in data set [1] is recorded as 7%. For the same compound, the “residual percentage in human S9 fraction” value in data set [2] turned out to be 49%. For the same compound, the “residual percentage in rat plasma” value in the data set “Stability in rat plasma” came to 93%. The “residual percentage in human plasma” value in data set [3] worked out at 90%.

Consider `O=C(NO)c1cc(F)c(Sc2nnc(-c3cccnc3)s2)c(F)c1` [comp. 191, 3,5-difluoro-N-hydroxy-4-((5-(pyridin-3-yl)-1,3,4-thiadiazol-2-yl)thio)benzamide], for which the 50% inhibitory concentration (IC50) on recombinant human HDAC6 came to 22 nM. The “residual percentage in rat S9 fraction” value in data set [1] turned out to be 35%. Besides, the “residual percentage in human S9 fraction” value in data set [2] is 42%. Besides, the “residual percentage in rat plasma” value in the data set “Stability in rat plasma” is on record as 92%. In addition, the “residual percentage in human plasma” value in data set [3] is reported as 93%.

With `O=C(NO)c1cc(F)c(Sc2nnc(-c3ccccc3)o2)c(F)c1` [comp. 192, 3,5-difluoro-4-[(5-phenyl-1,3,4-oxadiazol-2-yl)sulfanyl]benzenecarbohydroxamic acid], the half-inhibitory concentration (IC50) at recombinant human HDAC6 amounted to 31 nM. Moreover, the “residual percentage in rat S9 fraction” value in data set [1] was found to be 17%. Besides, the “residual percentage in human S9 fraction” value in data set [2] is given as 43%. In addition, in “Stability in rat plasma”, the “residual percentage in rat plasma” value was 90%. Further, in data set [3], the “residual percentage in human plasma” value came to 100%.

Take `Cn1c(Sc2c(F)cc(C(=O)NO)cc2F)nnc1-c1ccco1` [comp. 199, 3,5-difluoro-4-[[5-(2-furyl)-4-methyl-1,2,4-triazol-3-yl]sulfanyl]benzenecarbohydroxamic acid]: the IC50 at recombinant human HDAC6 turned out to be 6 nM. Further, the “residual percentage in rat S9 fraction” value in data set [1] turned out to be 57%. Also, the “residual percentage in human S9 fraction” value in data set [2] is reported as 75%. The “residual percentage in rat plasma” value in “Stability in rat plasma” was found to be 92%. Also, the “residual percentage in human plasma” value in data set [3] amounted to 90%.

Consider `CN(C)Cc1ccc(-c2nnc(Sc3c(F)cc(C(=O)NO)cc3F)n2C)o1` [comp. 206, 4-[[5-[5-[(dimethylamino)methyl]-2-furyl]-4-methyl-1,2,4-triazol-3-yl]sulfanyl]-3,5-difluoro-benzenecarbohydroxamic acid], for which, on recombinant human HDAC6, the half-maximal inhibitory concentration (IC50) came out at 7 nM. For the same compound, in data set [1], the “residual percentage in rat S9 fraction” value turned out to be 50%. Further, in data set [2], the “residual percentage in human S9 fraction” value came out at 97%. Also, in “Stability in rat plasma”, the “residual percentage in rat plasma” value worked out at 88%. Moreover, the “residual percentage in human plasma” value in data set [3] was found to be 92%.

With `CCN(CC)Cc1ccc(-c2nnc(Sc3c(F)cc(C(=O)NO)cc3F)n2C)o1` [comp. 211, 4-[[5-[5-(diethylaminomethyl)-2-furyl]-4-methyl-1,2,4-triazol-3-yl]sulfanyl]-3,5-difluoro-benzenecarbohydroxamic acid], the IC50 at recombinant human HDAC6 came to 8 nM. The “residual percentage in rat S9 fraction” value in data set [1] is listed as 67%. Moreover, in data set [2], the “residual percentage in human S9 fraction” value was determined as 59%. The “residual percentage in rat plasma” value in the data set “Stability in rat plasma” was 86%. In data set [3], the “residual percentage in human plasma” value came to 76%.

With `CN(c1ccc(-c2nnc(Sc3c(F)cc(C(=O)NO)cc3F)s2)cc1)S(C)(=O)=O` [compound 187, 3,5-difluoro-4-[[5-[4-[methyl(methylsulfonyl)amino]phenyl]-1,3,4-thiadiazol-2-yl]sulfanyl]benzenecarbohydroxamic acid], the IC50 at recombinant human HDAC6 was 55 nM. Further, in data set [1], the “residual percentage in rat S9 fraction” value is 17%. The “residual percentage in human S9 fraction” value in data set [2] is reported as 54%. For the same compound, the “residual percentage in rat plasma” value in the data set “Stability in rat plasma” is 101%. Further, the “residual percentage in human plasma” value in data set [3] is 92%.

For `O=C(NO)c1ccc(Cc2noc(-c3ccnc(N4CCOCC4)c3)n2)cc1` [compound 193, 4-[[5-(2-morpholino-4-pyridyl)-1,2,4-oxadiazol-3-yl]methyl]benzenecarbohydroxamic acid], the IC50 on recombinant human HDAC6 is 6 nM. Further, the “residual percentage in rat S9 fraction” value in data set [1] is on record as 63%. For the same compound, the “residual percentage in human S9 fraction” value in data set [2] is on record as 71%. In the data set “Stability in rat plasma”, the “residual percentage in rat plasma” value is 81%. Further, the “residual percentage in human plasma” value in data set [3] turned out to be 100%.

`O=C(NO)c1cc(F)c(Cc2noc(-c3ccccc3)n2)c(F)c1` [compound 194, 3,5-difluoro-N-hydroxy-4-((5-phenyl-1,2,4-oxadiazol-3-yl)methyl)benzamide]: the IC50 on recombinant human HDAC6 is 11 nM. Also, the “residual percentage in rat S9 fraction” value in data set [1] is 3%. Moreover, the “residual percentage in human S9 fraction” value in data set [2] came to 29%. Also, the “residual percentage in rat plasma” value in the data set “Stability in rat plasma” is 89%. In data set [3], the “residual percentage in human plasma” value is 99%.

On to `O=C(NO)c1cc(F)c(Sc2nnc(-c3cncc(Br)c3)s2)c(F)c1` [compound 196, 4-[[5-(5-bromo-3-pyridyl)-1,3,4-thiadiazol-2-yl]sulfanyl]-3,5-difluoro-benzenecarbohydroxamic acid], for which the IC50 at recombinant human HDAC6 turned out to be 53 nM. The “residual percentage in rat S9 fraction” value in data set [1] is 23%. The “residual percentage in human S9 fraction” value in data set [2] came to 26%. Further, the “residual percentage in rat plasma” value in the data set “Stability in rat plasma” was determined as 99%. Moreover, in data set [3], the “residual percentage in human plasma” value is listed as 89%.

Regarding `O=C(NO)c1cc(F)c(Cc2nnc(-c3cncc(N4CCOCC4)c3)s2)c(F)c1` [compound 197, 3,5-difluoro-4-[[5-(5-morpholino-3-pyridyl)-1,3,4-thiadiazol-2-yl]methyl]benzenecarbohydroxamic acid], the half-maximal inhibitory concentration (IC50) on recombinant human HDAC6 was 10 nM. In addition, the “residual percentage in rat S9 fraction” value in data set [1] worked out at 62%. Moreover, the “residual percentage in human S9 fraction” value in data set [2] stood at 86%. In addition, in the data set “Stability in rat plasma”, the “residual percentage in rat plasma” value is 82%. In addition, the “residual percentage in human plasma” value in data set [3] is 96%.

Take `O=C(NO)c1cc(F)c(Cc2nnc(-c3ccccc3)s2)c(F)c1` [compound 198, 3,5-difluoro-N-hydroxy-4-((5-phenyl-1,3,4-thiadiazol-2-yl)methyl)benzamide]: at recombinant human HDAC6, the concentration for half-maximal inhibition (IC50) amounted to 5 nM. Further, in data set [1], the “residual percentage in rat S9 fraction” value is 6%. For the same compound, the “residual percentage in human S9 fraction” value in data set [2] was 51%. Moreover, the “residual percentage in rat plasma” value in “Stability in rat plasma” was found to be 63%. Besides, the “residual percentage in human plasma” value in data set [3] was determined as 95%.

Regarding `COCCN(CCOC)c1cncc(-c2nc(Cc3c(F)cc(C(=O)NO)cc3F)no2)c1` [compound 200, 4-[[5-[5-[bis(2-methoxyethyl)amino]-3-pyridyl]-1,2,4-oxadiazol-3-yl]methyl]-3,5-difluoro-benzenecarbohydroxamic acid], the IC50 at recombinant human HDAC6 came out at 8 nM. Also, the “residual percentage in rat S9 fraction” value in data set [1] came out at 32%. In data set [2], the “residual percentage in human S9 fraction” value is listed as 37%. In the data set “Stability in rat plasma”, the “residual percentage in rat plasma” value is listed as 96%. Moreover, the “residual percentage in human plasma” value in data set [3] is recorded as 102%.
